Legend:
[1] = tested on: honey bees; experiment: Time course of lipase activity (RFU) in honey bees challenged with imidacloprid; format: in vivo, Apis mellifera
Protocol: Healthy honey bees were challenged in a cup-cage environment with either 5 ppb or 50 ppb of the neonicotinoid imidacloprid. The lipase activity levels were measured during a 50 minute time course, as taught herein.
To determine if it is possible to detect a difference between healthy bees and DWV-infected bees using the EnzChek lipase substrate and the buffers taught herein, a time course assay was performed using a set amount of EnzChek lipase substrate and a fixed amount of extracted pupae. […] In this figure, the relative fluorescence intensity (RFU) measured was plotted against time. Using linear regression, a significant difference in slopes was observable between individuals from DWV-infected hives, and individuals from healthy hives. The slope obtained for DWV-infected individuals was about 13.8 higher than the slope obtained for healthy individuals.
Healthy seven and fourteen-day-old emerging adult honey bees were obtained from field colonies and were challenged with either 5 ppb or 50 ppb of the neonicotinoid imidacloprid. Same-aged bees were collected from unchallenged colonies acted as controls. The lipase activity levels were measured during a 30-minute time course, as in Example 3. […] Statistical significance was determined using pair-wise Kaplan Meier linear regression (P<0.01).

[2] = tested on: honey bees; experiment: Total lipid content of imidacloprid-challenged bees, vanillin assay; format: in vivo, Apis mellifera
Protocol: The total lipid content on bees challenged with either 5 ppb or 50 ppb imidacloprid was measured using the vanillin assay, performed as in Example 4. The measured lipid levels (in mg/mL) were plotted, and the results are shown on FIG. 10. The total lipid content for bees treated with 5 ppb imidacloprid (P<0.01) or 50 ppb imidacloprid (P<0.05) was approximately 3-fold lower than the total lipid content measured in control bees.
To determine if the lipase activity measured in healthy and DWV-infected hives correlated with the measured lipid levels, the vanillin assay (Foray, V., et al., 2012, “A handbook for uncovering the complete energetic budget in insects: the van Handel's method (1985) revisited,” Physiol. Entomol. 37: 295-302) was used to measure the lipid levels in the bees. Briefly, vanillin reagent was prepared by mixing vanillin (V1104; Sigma-Aldrich, St. Louis, Mo., USA) with 68% ortho-phosphoric acid, reaching a final concentration of 1.2 g/L. For the assay, 100 μL of homogenized pupae in PBS was transferred into a borosilicate microplate well and heated at 90° C. until complete solvent evaporation. Ten microliters of 98% sulphuric acid was then added to each well, and the microplate was incubated at 90° C. for 2 minutes in a water bath. […] The plate was homogenized, incubated at room temperature for 15 minutes and its absorbance was measured spectrophotometrically at 525 nm.

O=[N+]([O-])NC1=NCCN1Cc1ccc(Cl)nc1 [imidacloprid, 1-(6-chloro-3-pyridylmethyl)-N-nitroimidazolidin-2-ylideneamine]
lipase activity levels (slope of RFU against time) compared with control bees ([1]; bees challenged with 5 ppb imidacloprid): similar
lipase activity levels (RFU against time) compared with control bees ([1]; bees challenged with 50 ppb imidacloprid, linear regression P<0.01): significantly higher
total lipid content, fold lower than control bees ([2]; bees treated with 5 ppb imidacloprid, P<0.01): approximately 3 fold
total lipid content, fold lower than control bees ([2]; bees treated with 50 ppb imidacloprid, P<0.05): approximately 3 fold
